Results reported in patent US4277479A, “Tetrazolylalkoxycarbostyril derivatives and pharmaceutical compositions containing them” (Otsuka Pharmaceutical Co., Ltd., priority 1978, dated 1981).

Target: T1, cyclic AMP phosphodiesterase (Oryctolagus cuniculus, UniProt G1ST54)
T1 construct: the supernatant was collected to use it as a crude enzyme solution; from tissue; host or cells: rabbit platelets (from platelet-rich plasma)
T1 sequence (G1ST54 1-1128): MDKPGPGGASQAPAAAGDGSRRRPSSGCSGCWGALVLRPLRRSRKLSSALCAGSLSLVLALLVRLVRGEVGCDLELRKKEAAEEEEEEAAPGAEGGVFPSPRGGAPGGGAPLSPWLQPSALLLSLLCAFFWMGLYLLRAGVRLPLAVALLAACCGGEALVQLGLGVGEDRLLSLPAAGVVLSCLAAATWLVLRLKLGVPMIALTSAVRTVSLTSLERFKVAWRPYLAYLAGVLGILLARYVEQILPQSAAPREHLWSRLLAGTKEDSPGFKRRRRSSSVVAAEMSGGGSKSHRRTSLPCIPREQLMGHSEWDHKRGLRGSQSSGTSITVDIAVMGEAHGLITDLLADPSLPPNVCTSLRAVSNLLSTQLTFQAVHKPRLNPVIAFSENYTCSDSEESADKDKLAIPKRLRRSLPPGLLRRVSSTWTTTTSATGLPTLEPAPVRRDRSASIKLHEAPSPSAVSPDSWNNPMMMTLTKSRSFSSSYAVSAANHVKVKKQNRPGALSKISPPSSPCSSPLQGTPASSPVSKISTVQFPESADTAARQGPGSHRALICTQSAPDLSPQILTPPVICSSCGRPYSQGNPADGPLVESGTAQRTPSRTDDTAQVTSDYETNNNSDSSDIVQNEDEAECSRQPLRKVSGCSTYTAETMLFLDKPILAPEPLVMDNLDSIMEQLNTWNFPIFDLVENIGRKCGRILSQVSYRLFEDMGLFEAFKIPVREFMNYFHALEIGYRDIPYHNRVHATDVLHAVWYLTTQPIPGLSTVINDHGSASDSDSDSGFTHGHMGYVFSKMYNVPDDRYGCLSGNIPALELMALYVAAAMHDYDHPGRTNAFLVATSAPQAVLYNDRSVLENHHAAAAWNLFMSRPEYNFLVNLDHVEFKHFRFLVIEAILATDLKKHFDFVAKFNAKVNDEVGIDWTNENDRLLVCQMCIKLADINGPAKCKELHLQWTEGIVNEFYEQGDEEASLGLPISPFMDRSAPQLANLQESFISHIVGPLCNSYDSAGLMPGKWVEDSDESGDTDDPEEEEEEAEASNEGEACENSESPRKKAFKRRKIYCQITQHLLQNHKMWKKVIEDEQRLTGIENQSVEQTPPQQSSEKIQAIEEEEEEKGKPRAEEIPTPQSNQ
Experiment: Obstructive action against cyclic AMP phosphodiesterase
Assay type: biochemical, rabbit
Settings: 0.4 μmol cyclic AMP, read-out: Phosphodiesterase obstruction rate; for inhibition at 1 µM: concentration of test compound solution 10^-6 mole; for inhibition: concentration of test compound solution 10^-7 mole; for inhibition at 0.01 µM: concentration of test compound solution 10^-8 mole; for inhibition at 0.001 µM: concentration of test compound solution 10^-9 mole
Experimental: (Test of obstructive action against cyclic AMP phosphodiesterase)
The obstructive action against cyclic AMP phosphodiesterase was measured according to the activity measuring method described in "Biochimica et Biophysica Acta", Vol. 429, pp. 485-497 (1976) and "Biochemical Medicine", Vol. 10, pp. 301-311 (1974).
That is, for determining the obstructive activity against cyclic AMP phosphodiesterase, 10 ml of a solution obtained by adding 1 mmol of MgCl2 into 50 mmol of tris-hydrochloric acid buffer with pH 7.4 was added to the platelets obtained by further centrifuging the above-said rabbit PRP at 3,000 r.p.m. for 10 minutes, and the suspended platelets were ground by a Teflon potter type homogenizer. This was followed by two times of freezing and thawing treatment and 300-second fracturing with 200 watt supersonic waves. After additional 60-minute centrifugation with 100,000 g, the supernatant was collected to use it as a crude enzyme solution.
10 Milliliters of this crude buffer solution was added to a 1.5×20 cm DEAE-cellulose column which has previously been buffered with 50 mmol of tris-acetate buffer (pH 6.0), followed by washing and elution with 30 ml of 50 mmol tris-acetate buffer, and this buffer solution was subjected to linear gradient elution with 0 to 1 moles of sodium acetate-tris-acetate buffer. The flow rate was 0.5 ml/min, and 5 ml of each fraction was batched out. […] This fraction was used as cyclic AMP phosphodiesterase.
0.1 Milliliter of an aqueous solution of each test compound of a specified concentration was mixed with 40 mmol of tris-hydrochloric acid buffer (pH 8.0, containing 50 μg of cow serum albumin and 4 mmol of MgCl2) containing predetermined 0.4 μmol of cyclic AMP (tritium cyclic AMP), and 0.2 ml of this mixed solution was used as a substrate solution.
0.2 Milliliter of the above-prepared cyclic AMP phosphodiesterase of a predetermined concentration was added to said substrate solution and the mixture was reacted at 30° C. for 20 minutes, producing tritium 5'-AMP from the tritium cyclic AMP.
The reaction system was then immersed in boiling water for 2 minutes to stop the reaction, and then this reaction solution was cooled in ice water and, for converting the produced tritium 5'-AMP into tritium adenosine, the solution was added with 0.05 ml (1 mg/ml) of snake poison as 5'-nucleotidase and reacted at 30° C. for 10 minutes. The whole amount of this reaction solutions was then added to a cation exchange resin (AG 500 W×4, 200-400 meshes, manufactured by Bio-Rad Co., column size: 0.5×1.5 cm), and the produced tritium anodesine alone was allowed to combine, washed with 6 ml of distilled water and eluted with 1.5 ml of 3 N-ammonia water. The whole quantity of the elutant was added with 10 ml of a triton-toluene type scintillator and the produced tritium adenosine was measured by a liquid scintillation counter to determine the phosphodiesterase activity.
In this way, the phosphodiesterase activation value (Vs) of the test compounds of the respective concentrations was determined, and the phosphodiesterase obstruction rate (%) was determined from said activation value (Vs) and control value (Vc) (obtained from water not containing any test compound) from the following formula: [formula]

Row | Compound | inhibition at 1 µM [%] | inhibition [%] | inhibition at 0.01 µM [%] | inhibition at 0.001 µM [%]
1 | O=c1ccc2cc(OCCCc3nnnn3C3CCCCC3)ccc2[nH]1 [Compound 1, 6-[3-(1-Cyclohexyltetrazol-5-yl)propoxy]carbostyril] | 92.9 | 83.8 | 58.4 | 44.7
2 | O=c1ccc2cc(OCCCc3nnnn3CC3CCCCC3)ccc2[nH]1 [Compound 5, 6-[3-(1-Cyclohexylmethyltetrazol-5-yl)propoxy]carbostyril] | 89.9 | 73.4 | 55.2 | 38.6
3 | O=c1ccc2cc(OCCCc3nnnn3C3CCCCCCC3)ccc2[nH]1 [Compound 6, 6-[3-(1-Cyclooctyltetrazol-5-yl)propoxy]carbostyril] | 88.4 | 79.6 | 57.4 | 36.5
4 | O=c1ccc2cc(OCCCCc3nnnn3C3CCCCC3)ccc2[nH]1 [Compound 7, 6-[4-(1-Cyclohexyltetrazol-5-yl)butoxy]carbostyril] |  | 98.4 | 68.3 | 50.6
